Assay results reported in ChEMBL document CHEMBL1147725, “Identification and biological characterization of 6-aryl-7-isopropylquinazolinones as novel TRPV1 antagonists that are effective in models of chronic pain” (J Med Chem, 2006).
pIC50: −log10 of the molar value.

Legend:
Rattus norvegicus [1] = test: Concentration in rat brain at 1 mg/kg, iv after 0.033 hrs; type: ADME, organism-based, Wistar Han; set-up: dose 1 mg/kg, route intravenous; conditions: in vivo
Rattus norvegicus [2] = test: Concentration in rat brain at 3 mg/kg, po after 2 hrs; type: ADME, organism-based, Wistar Han; set-up: dose 3 mg/kg, route oral; conditions: in vivo
[3] = Oral Bioavailability in rat at 3mg/kg; type: ADME, organism-based; conditions: Wistar Han, in vivo
Rattus norvegicus [4] = test: Concentration in rat brain at 1 mg/kg, iv after 2 hrs; type: ADME, organism-based, Wistar Han; set-up: dose 1 mg/kg, route intravenous; conditions: in vivo
[5] = Tmax in rat brain at 1 mg/kg, iv; type: ADME, organism-based; set-up: dose 1 mg/kg, route intravenous; conditions: Wistar Han
Rattus norvegicus [6] = test: Concentration in rat brain at 1 mg/kg, iv after 1 hrs; type: ADME, organism-based, Wistar Han; set-up: dose 1 mg/kg, route intravenous; conditions: in vivo
Rattus norvegicus [7] = test: Concentration in rat brain at 3 mg/kg, po after 0.5 hrs; type: ADME, organism-based, Wistar Han; set-up: dose 3 mg/kg, route oral; conditions: in vivo
Rattus norvegicus [8] = test: Cmax in rat brain at 1 mg/kg, iv; type: ADME, organism-based, Wistar Han; set-up: dose 1 mg/kg, route intravenous; conditions: in vivo
[9] = molecular target: Transient receptor potential cation channel subfamily V member 1 (Homo sapiens, UniProt Q8NER1); test: Inhibition of calcium influx evoked by capsaicin in human TRPV1 expressing cells by fluorescence assay; type: functional
Sequence of Transient receptor potential cation channel subfamily V member 1 (Homo sapiens, UniProt Q8NER1) (Q8NER1 whole entry): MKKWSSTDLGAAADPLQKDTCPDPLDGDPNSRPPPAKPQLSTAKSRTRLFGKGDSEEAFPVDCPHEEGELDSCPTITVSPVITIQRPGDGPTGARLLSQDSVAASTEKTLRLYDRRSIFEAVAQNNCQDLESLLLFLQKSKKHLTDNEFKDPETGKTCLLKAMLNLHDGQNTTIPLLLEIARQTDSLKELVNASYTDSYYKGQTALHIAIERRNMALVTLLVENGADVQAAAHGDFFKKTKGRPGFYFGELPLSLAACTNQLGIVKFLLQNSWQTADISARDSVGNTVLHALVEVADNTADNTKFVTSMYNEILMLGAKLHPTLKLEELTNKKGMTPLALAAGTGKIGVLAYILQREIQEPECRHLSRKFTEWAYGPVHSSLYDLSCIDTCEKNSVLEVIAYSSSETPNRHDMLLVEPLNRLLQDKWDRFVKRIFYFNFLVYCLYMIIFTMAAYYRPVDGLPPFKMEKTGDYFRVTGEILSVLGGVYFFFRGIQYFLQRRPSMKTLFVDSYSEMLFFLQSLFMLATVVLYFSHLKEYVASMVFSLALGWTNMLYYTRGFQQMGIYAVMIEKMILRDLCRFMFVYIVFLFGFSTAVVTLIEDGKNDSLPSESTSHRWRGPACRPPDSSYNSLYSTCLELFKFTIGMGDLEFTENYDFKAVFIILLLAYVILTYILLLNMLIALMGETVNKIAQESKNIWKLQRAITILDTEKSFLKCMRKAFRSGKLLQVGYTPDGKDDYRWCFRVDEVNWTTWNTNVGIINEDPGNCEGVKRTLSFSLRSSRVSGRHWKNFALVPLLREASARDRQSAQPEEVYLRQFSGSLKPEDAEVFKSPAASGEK

[10] = Plasma concentration in rat at 3 mg/kg, po after 2 hrs; type: ADME, organism-based; set-up: dose 3 mg/kg, route oral; conditions: Wistar Han
[11] = molecular target: Transient receptor potential cation channel subfamily V member 1 (Rattus norvegicus) (UniProt O35433); test: Effect on neuropathic mechanical hyperalgesia in rat at 1 hr; type: functional
Sequence of Transient receptor potential cation channel subfamily V member 1 (Rattus norvegicus) (O35433 whole entry): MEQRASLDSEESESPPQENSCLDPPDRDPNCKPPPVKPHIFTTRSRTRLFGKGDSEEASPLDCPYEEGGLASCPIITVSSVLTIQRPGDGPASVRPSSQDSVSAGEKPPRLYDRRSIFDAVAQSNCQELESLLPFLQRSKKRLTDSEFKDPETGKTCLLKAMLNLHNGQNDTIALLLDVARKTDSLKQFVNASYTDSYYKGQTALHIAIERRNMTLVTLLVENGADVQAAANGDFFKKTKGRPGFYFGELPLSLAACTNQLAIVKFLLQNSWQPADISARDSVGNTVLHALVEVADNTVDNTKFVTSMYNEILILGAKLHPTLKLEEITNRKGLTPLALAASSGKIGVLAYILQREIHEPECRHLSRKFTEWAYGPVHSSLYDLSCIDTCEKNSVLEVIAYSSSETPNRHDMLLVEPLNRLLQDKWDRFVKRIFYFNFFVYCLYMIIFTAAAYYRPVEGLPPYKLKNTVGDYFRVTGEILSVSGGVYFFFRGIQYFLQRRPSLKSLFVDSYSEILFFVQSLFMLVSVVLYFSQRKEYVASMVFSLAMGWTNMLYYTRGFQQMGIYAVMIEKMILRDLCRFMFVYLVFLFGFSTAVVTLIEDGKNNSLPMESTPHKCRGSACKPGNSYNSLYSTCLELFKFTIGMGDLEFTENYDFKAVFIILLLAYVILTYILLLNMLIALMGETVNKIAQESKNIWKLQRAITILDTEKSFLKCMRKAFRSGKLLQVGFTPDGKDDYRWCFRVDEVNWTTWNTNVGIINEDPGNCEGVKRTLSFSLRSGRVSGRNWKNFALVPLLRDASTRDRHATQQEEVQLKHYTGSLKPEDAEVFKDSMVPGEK

Rattus norvegicus [12] = test: Concentration in rat brain at 3 mg/kg, po after 1.5 hrs; type: ADME, organism-based, Wistar Han; set-up: dose 3 mg/kg, route oral; conditions: in vivo
[13] = Plasma concentration in rat at 10 mg/kg, po after 0.16 hrs; type: ADME, organism-based; set-up: dose 10 mg/kg, route oral; conditions: Wistar Han
[14] = Plasma concentration in rat at 1 mg/kg, iv after 4 hrs; type: ADME, organism-based; set-up: dose 1 mg/kg, route intravenous; conditions: Wistar Han
Rattus norvegicus [15] = test: Concentration in rat brain at 10 mg/kg, po after 6 hrs; type: ADME, organism-based, Wistar Han; set-up: dose 10 mg/kg, route oral; conditions: in vivo
Rattus norvegicus [16] = test: Concentration in rat brain at 10 mg/kg, po after 9 hrs; type: ADME, organism-based, Wistar Han; set-up: dose 10 mg/kg, route oral; conditions: in vivo
Rattus norvegicus [17] = test: Concentration in rat brain at 3 mg/kg, po after 18 hrs; type: ADME, organism-based, Wistar Han; set-up: dose 3 mg/kg, route oral; conditions: in vivo
[18] = molecular target: Transient receptor potential cation channel subfamily V member 1 (Rattus norvegicus) (UniProt O35433); test: Effect on inflammatory mechanical hyperalgesia in rat at 1 hr; type: functional
[19] = Plasma concentration in rat at 1 mg/kg, iv after 0.083 hrs; type: ADME, organism-based; set-up: dose 1 mg/kg, route intravenous; conditions: Wistar Han
[20] = molecular target: Transient receptor potential cation channel subfamily V member 1 (Rattus norvegicus, UniProt O35433); test: Inhibition of low pH activation of rat TRPV1; type: functional
Sequence of Transient receptor potential cation channel subfamily V member 1 (Rattus norvegicus, UniProt O35433) (O35433 whole entry): as above

[21] = Plasma concentration in rat at 10 mg/kg, po after 4 hrs; type: ADME, organism-based; set-up: dose 10 mg/kg, route oral; conditions: Wistar Han
Rattus norvegicus [22] = test: Concentration in rat brain at 1 mg/kg, iv after 0.5 hrs; type: ADME, organism-based, Wistar Han; set-up: dose 1 mg/kg, route intravenous; conditions: in vivo
Rattus norvegicus [23] = test: Concentration in rat brain at 3 mg/kg, po after 1 hrs; type: ADME, organism-based, Wistar Han; set-up: dose 3 mg/kg, route oral; conditions: in vivo
[24] = Terminal half life in rat at 1 mg/kg, iv; type: ADME, organism-based; set-up: dose 1 mg/kg, route intravenous; conditions: Wistar Han, in vivo, read-out: beta t1/2 (converted)
Rattus norvegicus [25] = test: Concentration in rat brain at 1 mg/kg, iv after 4 hrs; type: ADME, organism-based, Wistar Han; set-up: dose 1 mg/kg, route intravenous; conditions: in vivo
[26] = Tmax in rat plasma at 3 mg/kg, po; type: ADME, organism-based; set-up: dose 3 mg/kg, route oral; conditions: Wistar Han
[27] = Plasma concentration in rat at 3 mg/kg, po after 0.5 hrs; type: ADME, organism-based; set-up: dose 3 mg/kg, route oral; conditions: Wistar Han
[28] = Clearance in rat at 1 mg/kg, iv; type: ADME, organism-based; set-up: dose 1 mg/kg, route intravenous; conditions: Wistar Han, in vivo
Rattus norvegicus [29] = test: Concentration in rat brain at 10 mg/kg, po after 1 hrs; type: ADME, organism-based, Wistar Han; set-up: dose 10 mg/kg, route oral; conditions: in vivo
[30] = Terminal half life in rat at 3 mg/kg, po; type: ADME, organism-based; set-up: dose 3 mg/kg, route oral; conditions: Wistar Han, in vivo, read-out: beta t1/2 (converted)
[31] = Plasma concentration in rat at 1 mg/kg, iv after 6 hrs; type: ADME, organism-based; set-up: dose 1 mg/kg, route intravenous; conditions: Wistar Han
[32] = Permeability across Caco-2 cell membrane; type: ADME, cell-based; conditions: human, read-out: permeability (converted)
[33] = Plasma concentration in rat at 3 mg/kg, po after 4 hrs; type: ADME, organism-based; set-up: dose 3 mg/kg, route oral; conditions: Wistar Han
[34] = Plasma concentration in rat at 3 mg/kg, po after 0.16 hrs; type: ADME, organism-based; set-up: dose 3 mg/kg, route oral; conditions: Wistar Han
Rattus norvegicus [35] = test: Concentration in rat brain at 1 mg/kg, iv after 0.16 hrs; type: ADME, organism-based, Wistar Han; set-up: dose 1 mg/kg, route intravenous; conditions: in vivo
Rattus norvegicus [36] = test: Concentration in rat brain at 3 mg/kg, po after 4 hrs; type: ADME, organism-based, Wistar Han; set-up: dose 3 mg/kg, route oral; conditions: in vivo
Rattus norvegicus [37] = test: Concentration in rat brain at 10 mg/kg, po after 0.16 hrs; type: ADME, organism-based, Wistar Han; set-up: dose 10 mg/kg, route oral; conditions: in vivo
Rattus norvegicus [38] = test: Concentration in rat brain at 10 mg/kg, po after 24 hrs; type: ADME, organism-based, Wistar Han; set-up: dose 10 mg/kg, route oral; conditions: in vivo

## Cc1nc2cc(C(C)C)c(-c3ccc(Cl)c(OCC4CC4)c3)cc2c(=O)[nH]1
Rattus norvegicus [1]
  Ct: 764 pmol/g
Rattus norvegicus [2]
  Ct: 1364 pmol/g
[3]
  bioavailability: 75%
Rattus norvegicus [4]
  Ct: 449 pmol/g
[5]
  Tmax: 0.5 h
Rattus norvegicus [6]
  Ct: 709 pmol/g
Rattus norvegicus [7]
  Ct: 211 pmol/g
Rattus norvegicus [8]
  Cmax: 1079 pmol/g
[9]
  pIC50: 7.30
[10]
  concentration at 2 h: 1420 nM
[11]
  ED50: 2.6 mg/kg
Rattus norvegicus [12]
  Ct: 951 pmol/g
[13]
  concentration at 0.16 h: 71 nM
[14]
  concentration at 4 h: 726 nM
Rattus norvegicus [15]
  Ct: 1042 pmol/g
Rattus norvegicus [16]
  Ct: 811 pmol/g
Rattus norvegicus [17]
  Ct: < 125 pmol/g
[18]
  ED50: 4.7 mg/kg
[19]
  concentration at 0.083 h: 2650 nM
[20]
  pIC50: 6.98
[21]
  concentration at 4 h: 5970 nM
Rattus norvegicus [22]
  Ct: 1079 pmol/g
Rattus norvegicus [23]
  Ct: 641 pmol/g
[24]
  half-life: 3.48 h
Rattus norvegicus [25]
  Ct: 155 pmol/g
[26]
  Tmax: 4 h
[27]
  concentration at 0.5 h: 599 nM
[28]
  clearance: 5.25 mL/min/kg
Rattus norvegicus [29]
  Ct: 522 pmol/g
[30]
  half-life: 3.5 h
[31]
  concentration at 6 h: 488 nM
[32]
  Papp: 4.37 ×10⁻⁶ cm/s
[33]
  concentration at 4 h: 1910 nM
[34]
  concentration at 0.16 h: 60 nM
Rattus norvegicus [35]
  Ct: 944 pmol/g
Rattus norvegicus [36]
  Ct: 1666 pmol/g
Rattus norvegicus [37]
  Ct: 16.4 pmol/g
Rattus norvegicus [38]
  Ct: < 25 pmol/g
